# From article PMC10708623, “The Synergistic Effect of GH13 and GH57 GBEs of Petrotoga mobilis Results in α-Glucan Molecules with a Higher Branch Density” (Polymers, 2023)
# Molecular target: T1, PmGBE57 (Petrotoga mobilis, UniProt A9BH92)
# T1 construct: gene Pmob_0588; full-length codon-optimized gene in pET28a(+), C-terminal His-tag, expressed in E. coli BL21(DE3), Ni-NTA purified
# T1 sequence (A9BH92 1-538): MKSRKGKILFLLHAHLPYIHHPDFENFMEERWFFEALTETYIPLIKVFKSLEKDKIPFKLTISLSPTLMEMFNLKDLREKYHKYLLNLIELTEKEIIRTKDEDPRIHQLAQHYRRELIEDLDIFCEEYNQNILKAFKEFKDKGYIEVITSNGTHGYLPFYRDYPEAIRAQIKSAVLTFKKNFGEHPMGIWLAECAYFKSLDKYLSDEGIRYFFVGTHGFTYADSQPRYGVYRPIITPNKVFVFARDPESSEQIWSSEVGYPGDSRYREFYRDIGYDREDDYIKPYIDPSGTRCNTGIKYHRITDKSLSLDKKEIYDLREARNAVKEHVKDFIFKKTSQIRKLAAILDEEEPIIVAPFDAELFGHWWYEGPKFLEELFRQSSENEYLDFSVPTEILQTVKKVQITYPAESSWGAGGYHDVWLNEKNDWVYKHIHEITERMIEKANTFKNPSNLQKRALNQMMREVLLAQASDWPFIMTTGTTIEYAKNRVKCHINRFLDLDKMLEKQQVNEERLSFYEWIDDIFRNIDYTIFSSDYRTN
# Assay: HPAEC-PAD chain length analysis after […] h
# Type: biochemical
# Conditions: 1 U^B/g substrate, hydrolysis only, reagent also contains DP6
smiles,measurement,value
"OC[C@H]1O[C@H](O[C@H]2[C@H](O)[C@@H](O)[C@@H](O[C@H]3[C@H](O)[C@@H](O)[C@@H](O[C@H]4[C@H](O)[C@@H](O)[C@@H](O[C@H]5[C@H](O)[C@@H](O)[C@@H](O[C@H]6[C@H](O)[C@@H](O)[C@@H](O[C@H]7[C@H](O)[C@@H](O)C(O)O[C@@H]7CO)O[C@@H]6CO)O[C@@H]5CO)O[C@@H]4CO)O[C@@H]3CO)O[C@@H]2CO)[C@H](O)[C@@H](O)[C@@H]1O (stereo partly shown) [MD7, maltoheptaose]",HPAEC-PAD chain length analysis after 24 h,PmGBE57 showed the ability to utilize the short DP7 chains
